Source: patent US11697640B2, “Compounds for treating proliferative diseases” (Children's Medical Center Corporation, priority 2015, dated 2023)

Key:
[1] = tested on: parental (DU145) prostate cancer cells; experiment: Apoptosis by PARP-1 and Caspase-3 blot after 48 h treatment; type: cell-based; settings: 48 hours after treatment
Procedure: (§1) Cells were seeded in 6-well dishes at 50% confluence. Cells were treated with the compound OBD9 after 24 hours. 48 hours later, cells were lysed with lysis buffer and protein was collected and quantified with the BCA assay (Invitrogen). 20 micrograms of protein were loaded on 10% polyacrylamide gels. The gels were blotted onto nitrocellulose and stained with rabbit antibody to PARP-1 and Caspase-3 (both from Cell Signaling) and then visualized with goat, anti-rabbit HRP-conjugated antibody and HRP conjugated GAPDH.

[2] = tested on: high metastatic (DU145LN4) prostate cancer cells; experiment: as above; type: cell-based; settings: 48 hours after treatment
Procedure: as §1

[3] = Viability assay: effect of selected compounds on viability; type: cell-based; settings: for viability at 1 µM: 1.0 μM compound; for viability at 10 µM: 10 μM compound
[4] = tested on: PC3M-prostate cancer cells; experiment: Imaging of microtubule stability by tubulin staining and confocal microscopy; type: cell-based, human; settings: PC3M cells, 24, 48 and 72 hours
Procedure: Cells were seeded on glass coverslips. 24 hours later, cells were treated with compound OBD9. After the indicated times (24 hours, 48 hours, and 72 hours), cells were fixed with paraformaldehyde (4% in PBS), permeabilized Triton-X100 (0.02% in Phosphate buffered saline), then stained with mouse antibody to human tubulin (1:200 dilution) and then with 1:400 goat anti-mouse IgC (Invitrogen) and viewed via confocal microscopy at (63× objective).

tubulin = experiment: Tubulin polymerization assay (Cytoskeleton Inc. kit, fluorescent reporter); type: biochemical; settings: fluorescence-based polymerization kinetics
Procedure: Tubulin polymerization was measured using the tubulin polymerization assay kit from Cytoskeleton Inc., which measures tubulin polymerization kinetic via fluorescent enhancement to the incorporation of a fluorescent reporter into microtubules as polymerization takes place.

SMILES | apoptosis induction (PARP-1, Caspase-3) [1] | apoptosis induction (PARP-1, Caspase-3) [2] | viability at 1 µM [3] [%] | viability at 10 µM [3] [%] | effect on microtubule (tubulin) stability [4] | effect on tubulin polymerization (tubulin)
COC(=O)Nc1nc2cc(C(=O)c3ccc(N(C)C4COC4)cc3)ccc2[nH]1 [Compound 9] | induces apoptosis | induces apoptosis | 34.9 | 34.3 | interferes with microtubule (tubulin) stability | disrupts (inhibits) tubulin polymerization
COC(=O)Nc1nc2cc(Oc3cccc(N4CCN(C)CC4)n3)ccc2[nH]1 [Compound 12] |  |  | 94.5 | 35.2 |  | 
COC(=O)Nc1nc2cc(Oc3cccc(N4CCN(C)CC4)c3)ccc2[nH]1 [Compound 13] |  |  | 80.9 | 49.1 |  | 
CCCSc1ccc2[nH]c(NC(=O)OCCN(C)C)nc2c1 [Compound 15] |  |  | 97.4 | 35.3 |  | 
CCCSc1ccc2[nH]c(NC(=O)OCCCN(C)C)nc2c1 [Compound 16] |  |  | 90.1 | 90.3 |  | 
CN(C)CCCOC(=O)Nc1nc2cc(C(=O)c3ccc(F)cc3)ccc2[nH]1 [Compound 17] |  |  | 93.9 | 84.8 |  | 
